Where two headings read alike, the source gives them in different places. Starred links: 1 amine or outer side, 2 acyl side, 3 side chain; linkers in the order of their positions; H or OH if unused. Positions of bridges follow the written chain, without caps; N, C: chain ends. Non-standard residues stand in square brackets, D forms with d. Residues, ends and D or L forms follow the SMILES beside them. *: point of attachment. Oic = O=C(O)[C@@H]1C[C@@H]2CCCC[C@@H]2N1; Phe(4-Cl) = N[C@@H](Cc1ccc(Cl)cc1)C(=O)O; γGlu = O=C(O)[C@H](CCC(=O)[*:2])N[*:1]; NMeR = CN[C@@H](CCCNC(=N)N)C(=O)O; Tridecanoyl = CCCCCCCCCCCCC(=O)*; β3hF = N[C@H](CC(=O)O)Cc1ccccc1; Cha = N[C@@H](CC1CCCCC1)C(=O)O; Nle = CCCC[C@H](N)C(=O)O; AEEA = NCCOCCOCC(=O)O; Aib = CC(C)(N)C(=O)O; Mpa = O=C(O)CCS
Experiments:
[1] = system: Rat Peritoneal Mast Cells
[2] = liver homogenate; details: rat, 37° C., up to 4 hr
[3] = In vitro stability in rat liver homogenate; format: in vitro ADME; details: tissue homogenate
Method in brief: (§1)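 High resolution LC-MS of the supernatant gave remaining peptide. Samples came from 37° C. incubations of 5 μM apelin peptide in rat plasma or liver or kidney homogenate over 4 hr, stopped with methanol plus internal standard.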

[4] = In vitro stability in rat kidney homogenate; format: in vitro ADME; details: for remaining at 4 h, 5 μM: rat, tissue homogenate
Method in brief: as §1

[5] = In vitro stability in rat plasma; format: in vitro ADME
Method in brief: as §1

[6] = In vivo pharmacokinetics in rat; set-up: species or system Sprague-Dawley rats; details: rat, in vivo, sc, 0.5 mg/kg
Protocol: Evaluation of the in vivo pharmacokinetic profile of several pegylated and lipidated apelin polypeptides in rat was undertaken (FIGS. 9 and 10A-B). The apelin polypeptides were administered to Sprague-Dawley rats through subcutaneous (SC) administration and the pharmacokinetic profile for each polypeptide was subsequently evaluated. […] Blood samples collected over a 24 hr period were transferred into collection tubes containing potassium EDTA and stored on ice until processed. Plasma was obtained from blood by centrifugation. After transfer into a 96-well container, plasma samples were stored in a freezer maintained at approximately −80° C. Quantitative analysis of the apelin polypeptide in rat plasma samples was achieved using multiple reaction monitor (MRM) mode on a LC-MS/MS system.

[7] = biological target: T1, rat APJ receptor (Rattus norvegicus, UniProt Q9JHG3); assay: [35S] GTPγS assay, rat APJ receptor; format: biochemical; details: Table 16, read-out: EC50 Rat APJ Receptor
T1 construct: expressed in transfected cells
T1 sequence (Q9JHG3 1-377): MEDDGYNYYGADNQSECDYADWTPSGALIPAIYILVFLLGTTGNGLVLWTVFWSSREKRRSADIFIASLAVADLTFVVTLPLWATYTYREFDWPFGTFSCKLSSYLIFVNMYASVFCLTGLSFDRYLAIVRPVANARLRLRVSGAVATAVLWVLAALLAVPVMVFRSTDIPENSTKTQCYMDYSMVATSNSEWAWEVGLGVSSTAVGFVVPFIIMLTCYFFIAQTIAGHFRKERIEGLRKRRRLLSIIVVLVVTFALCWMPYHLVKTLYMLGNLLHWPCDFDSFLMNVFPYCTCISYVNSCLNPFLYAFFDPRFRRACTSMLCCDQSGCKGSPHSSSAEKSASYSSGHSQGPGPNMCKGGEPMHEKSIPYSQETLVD
Protocol: The membranes were incubated with modified peptides in the assay buffer. […] Bound [^35S] GTPγS was separated from free radiolabel by filtration. The filter bound radioactivity was determined by liquid scintillation counting.

[8] = system: Human Mast Cells; assay: Mast cell degranulation (histamine release), human mast cells; format: cell-based; details: human mast cells derived from CD34+ peripheral blood cells; 0.005 to 30 μM, 37° C., 30 min; less than 30% of total histamine content = negative
Protocol: Mast cell degranulation was measured for a number of the modified apelin polypeptides as follows in order to determine the potential immunogenic effect of the peptides. Mast cell degranulating peptide (MCDP) and compound 48/80 were used as positive controls. MCDP was obtained from Alomone Labs (Israel). Compound 48/80 was obtained from Sigma (Saint Louis, […].). Histamine Elisa kit was obtained from NEOGEN (Lexington, Ky.). Tyrode's buffer was obtained from Sigma (#T2397).
Mature human mast cells were derived from CD34+peripheral blood precursor cells after an 8-12 week differentiation/maturation process in vitro. […] Mast cell maturation was confirmed via expression of the mast cell markers c-kit and FcεRI via flow cytometry (>75% positive) and histamine release.
Mast cells (human or rat) were washed in Tyrode's buffer and seeded on 96-well plates (approx. 2000 mast cells/well). A 10 point dilution of test compounds were prepared in Tyrode's buffer and were incubated (0.005 to 30 μM) with mast cells at 37° C. for 30 min. […] A mast cell surfactant control is compared to a mast cell Tyrode's buffer control to ensure surfactants are not inducing histamine release in the absence of the lipidated molecule. Histamine release was quenched by placing the plates on ice for 5 min. Cells were centrifuged at 350×g at 4° C. for 5 min and the supernatant was collected. Released histamine was quantified by ELISA (Neogen Corporation) as per the kits' instruction. Briefly, the absorbance was measured at 650 nm in a microplate reader, following a direct competitive ELISA reaction with test samples compared against a standard curve. Total histamine content of the cells (0.1% Triton X-100) and spontaneous release were also measured to determine the percent of histamine release. Percent histamine release was calculated by the following formula: % histamine release=(ng/ml histamine release by test article−ng/ml spontaneous histamine release in Tyrode's buffer)/(ng/ml total histamine content of cells lysed in 0.1% Triton X-100−ng/ml spontaneous histamine release in Tyrode's buffer)×100.

## {H2}[MerPr](10KmPEGacetamide)QRP[NMeArg][Cha]SHKG[Oic][Nle][Aib][4-Cl-F]{COOH} (10KmPEGacetamide-[Mpa]QRP[NMeR][Cha]SHKG[Oic][Nle][Aib][Phe(4-Cl)]-OH) [SEQ ID NO: 120]
[1]; rat mast cells
  induction of histamine release from rat mast cells: no longer induced histamine release

## {H2} [MerPr] (10K mPEG acetamide) Q r P [hArg] [aMeLeu] S H K G P [Nle] P [4-Cl-F] {COOH}
[2]
  not cleaved: >90.0 % remaining at 4 hours

## CC[C@H](C)[C@H](N)C(=O)N[C@@H](CCCCN)C(=O)N[C@H]1CSSC[C@@H]2NC(=O)[C@H]([C@@H](C)CC)NC(=O)[C@H](Cc3c[nH]cn3)NC(=O)[C@@H]3CCCN3C(=O)[C@H](CCCCN)NC(=O)[C@H]([C@@H](C)CC)NC(=O)[C@H](C(C)C)NC(=O)[C@H](Cc3c[nH]cn3)NC(=O)[C@H](CCCNC(=N)N)NC(=O)[C@H](CCCCN)NC(=O)[C@H](CSSC[C@@H](C(=O)NCC(=O)N[C@@H](CCCCN)C(=O)N[C@@H](CC(N)=O)C(N)=O)NC(=O)[C@H]([C@@H](C)CC)NC(=O)[C@H](CCCCN)NC(=O)[C@H](CCCNC(=N)N)NC2=O)NC(=O)[C@H](CC(N)=O)NC1=O [MCDP, reference compound] (H-IKCNCKRHVIKPHICRKICGKN-NH2; disulfide 3-15, 5-19 (inferred); N-terminus and C-terminus assumed)
[1]
  Cause Histamine Release?: Yes
  EC50: 520 nM

## CCCCCCCCCCCCC(=O)N[C@@H](CCC(=O)NCCOCCOCC(=O)NCCOCCOCC(=O)N[C@@H](CCC(N)=O)C(=O)N[C@@H](CCCNC(=N)N)C(=O)N1CCC[C@H]1C(=O)N(C)[C@@H](CCCNC(=N)N)C(=O)N[C@@H](CC1CCCCC1)C(=O)N[C@@H](CO)C(=O)N[C@@H](Cc1c[nH]cn1)C(=O)N[C@@H](CCCCN)C(=O)NCC(=O)N1[C@H](C(=O)N[C@@H](CCCC)C(=O)NC(C)(C)C(=O)N[C@@H](Cc2ccc(Cl)cc2)C(=O)O)C[C@@H]2CCCC[C@@H]21)C(=O)O [compound 382] ({Tridecanoyl-γGlu-AEEA-AEEA}-QRP[NMeR][Cha]SHKG[Oic][Nle][Aib][Phe(4-Cl)]-OH)
[3]
  remaining at 4 h, 5 μM: 6%
[4]
  remaining at 4 h, 5 μM: 2%
[5]
  remaining at 4 h, 5 μM: 91%
[6]
  AUC(0-inf): 0.0961 µM·h
  half-life: 4.1 h

## CSCC[C@H](NC(=O)[C@@H]1CCCN1C(=O)CNC(=O)[C@H](CCCCN)NC(=O)[C@H](Cc1cnc[nH]1)NC(=O)[C@H](CO)NC(=O)[C@H](CC(C)C)NC(=O)[C@H](CCCNC(=N)N)NC(=O)[C@@H]1CCCN1C(=O)[C@H](CCCNC(=N)N)NC(=O)[C@@H]1CCC(=O)N1)C(=O)N1CCC[C@H]1C(=O)N[C@@H](Cc1ccccc1)C(=O)O [compound 6]
[4]; rat kidney homogenate, 5 μM peptide, 37° C., 4 hr
  Stability at 4 hours (% Remaining) Kidney: <1.0 % Remaining
[1]
  induction of histamine release from rat mast cells: inactive at the highest concentrations tested

## CCCCCCCCCCCCC(=O)N[C@@H](CCC(=O)NCCOCCOCC(=O)NCCOCCOCC(=O)N[C@@H](CCC(N)=O)C(=O)N[C@@H](CCCNC(=N)N)C(=O)N1CCC[C@H]1C(=O)N(C)[C@@H](CCCNC(=N)N)C(=O)N[C@@H](CC1CCCCC1)C(=O)N[C@@H](CO)C(=O)N[C@@H](Cc1c[nH]cn1)C(=O)N[C@@H](CCCCN)C(=O)NCC(=O)N1[C@H](C(=O)N[C@@H](CCCC)C(=O)N2CCC[C@H]2C(=O)N[C@H](CC(=O)O)Cc2ccccc2)C[C@@H]2CCCC[C@@H]21)C(=O)O [compound 379] ({Tridecanoyl-γGlu-AEEA-AEEA}-QRP[NMeR][Cha]SHKG[Oic][Nle]P[β3hF]-OH)
[3]
  remaining at 4 h, 5 μM: 2%
[4]
  remaining at 4 h, 5 μM: 1%
[5]
  remaining at 4 h, 5 μM: 92%
[6]
  AUC(0-inf): 0.052 µM·h
  half-life: 2.27 h
[7]
  EC50: 8.37 nM

## CCCC[C@H](NC(=O)[C@@H]1CCCN1C(=O)CNC(=O)[C@H](CCCCN)NC(=O)[C@H](Cc1c[nH]cn1)NC(=O)[C@H](CO)NC(=O)C(C)(CC(C)C)NC(=O)[C@H](CCCCNC(=N)N)NC(=O)C1(C)CCCN1C(=O)[C@H](CCCNC(=N)N)NC(=O)[C@H](CCC(N)=O)NC(C)=O)C(=O)N1CCC[C@H]1C(=O)N[C@@H](Cc1ccc(Cl)cc1)C(=O)O (stereo partly drawn) [compound 69]
[8]
  Induce Histamine Release? Human Mast Cells: No

— patent US11807693B2 (priority 2014, dated 2023)
